Assay results: US20240246977A1, “DEGRADATION OF BRUTON'S TYROSINE KINASE (BTK) BY CONJUGATION OF BTK INHIBITORS WITH E3 LIGASE LIGAND AND METHOD OF USE” (BeiGene Switzerland GmbH, priority 2021, published 2024)

Columns and labels:
HEK-293 cells = assay: HEK-293 cytotoxicity detection (CellTiter-Glo); format: cell-based; conditions: Homo sapiens, 72 h, 72 h incubation, CellTiter-Glo luminescence, read-out: HEK293
Summary of the method: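 HEK-293 cells exposed 72 h to 8 compounds doses (4-fold dilutions, top stock 5 mM at 500×) in 0.2% DMSO. Viability by CellTiter-Glo luminescence; inhibition normalised to DMSO high control and low control, IC50 from four-parameter curve fit.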

BTK = BTK (Homo sapiens, UniProt Q06187); assay: BTK cell degradation in TMD-8 cells, HTRF assay; format: cell-based; set-up: endogenous in cells; host or cells: TMD-8 cells; conditions: 6 h treatment, IC50 (DC50) of BTK degradation
Chain of BTK (Q06187 whole entry): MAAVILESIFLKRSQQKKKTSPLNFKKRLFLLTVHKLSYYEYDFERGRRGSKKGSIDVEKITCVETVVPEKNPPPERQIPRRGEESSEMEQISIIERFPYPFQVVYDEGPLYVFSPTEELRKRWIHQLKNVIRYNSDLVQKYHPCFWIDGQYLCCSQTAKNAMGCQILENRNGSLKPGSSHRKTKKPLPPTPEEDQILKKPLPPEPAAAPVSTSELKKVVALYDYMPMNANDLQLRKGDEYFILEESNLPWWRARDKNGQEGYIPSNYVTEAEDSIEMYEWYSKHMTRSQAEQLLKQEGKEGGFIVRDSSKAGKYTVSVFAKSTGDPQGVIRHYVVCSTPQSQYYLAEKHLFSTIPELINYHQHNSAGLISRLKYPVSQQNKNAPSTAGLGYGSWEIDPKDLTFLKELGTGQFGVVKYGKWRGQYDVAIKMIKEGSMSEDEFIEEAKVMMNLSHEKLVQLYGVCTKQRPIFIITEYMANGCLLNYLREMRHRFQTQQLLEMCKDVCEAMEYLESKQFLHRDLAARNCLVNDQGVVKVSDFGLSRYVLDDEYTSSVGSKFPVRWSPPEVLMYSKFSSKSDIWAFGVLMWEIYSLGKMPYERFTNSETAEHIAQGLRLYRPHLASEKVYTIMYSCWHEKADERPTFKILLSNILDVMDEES
Summary of the method: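 TMD-8 cells treated 6 h with 8-dose series (6-fold dilutions, 0.2% DMSO final), then lysed and BTK quantified by HTRF (337/665/620 nm) after overnight antibody incubation at room temperature. Degradation normalized to DMSO high and low controls; DC50 and Dmax from four-parameter fit.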

DC50 (BTK) [nM]	Compound	IC50 (HEK-293 cells) [nM]
11.6	COc1ccc2ccccc2c1C(=O)N[C@H](C)c1ccc(-c2nn3c(c2C(N)=O)Nc2ccc(N4CCN(CC5CCN(c6ccc(N7CCC(=O)NC7=O)cc6)CC5)CC4)cc2CC3)cc1 [Example C13, (R)-7-(4-((1-(4-(2,4-dioxotetrahydropyrimidin-1(2H)-yl)phenyl)piperidin-4-yl)methyl)piperazin-1-yl)-2-(4-(1-(2-methoxy-1-naphthamido)ethyl)phenyl)-9,10-dihydro-4H-benzo[d]pyrazolo[1,5-a][1,3]diazepine-3-carboxamide]	> 10000
4.1	Cc1c(C(=O)Nc2ccn(C)n2)ccc(-c2nn3c(c2C(N)=O)Nc2ccc(N4CCN(CC5CCN(c6ccc(N7CCC(=O)NC7=O)cc6)CC5)CC4)cc2CC3)c1F [Example B82, 7-(4-((1-(4-(2,4-dioxotetrahydropyrimidin-1(2H)-yl)phenyl)piperidin-4-yl)methyl)piperazin-1-yl)-2-(2-fluoro-3-methyl-4-((1-methyl-1H-pyrazol-3-yl)carbamoyl)phenyl)-9,10-dihydro-4H-benzo[d]pyrazolo[1,5-a][1,3]diazepine-3-carboxamide]	> 10000
1.1	Cc1c(C(=O)Nc2cscn2)ccc(-c2nn3c(c2C(N)=O)Nc2ccc(N4CCN(C(=O)C5CCN(c6ccc(N7CCC(=O)NC7=O)cc6)CC5)CC4)cc2CC3)c1F [Example B102, 7-(4-(1-(4-(2,4-dioxotetrahydropyrimidin-1(2H)-yl)phenyl)piperidine-4-carbonyl)piperazin-1-yl)-2-(2-fluoro-3-methyl-4-(thiazol-4-ylcarbamoyl)phenyl)-9,10-dihydro-4H-benzo[d]pyrazolo[1,5-a][1,3]diazepine-3-carboxamide]	> 10000
3.4	COc1ccc(Cl)cc1C(=O)NCc1ccc(-c2nn3c(c2C(N)=O)Nc2ccc(N4CCN(CC5CCN(c6ccc(N7CCC(=O)NC7=O)cc6)CC5)CC4)cc2CC3)cc1C [Example C6, 2-(4-((5-chloro-2-methoxybenzamido)methyl)-3-methylphenyl)-7-(4-((1-(4-(2,4-dioxotetrahydropyrimidin-1(2H)-yl)phenyl)piperidin-4-yl)methyl)piperazin-1-yl)-9,10-dihydro-4H-benzo[d]pyrazolo[1,5-a][1,3]diazepine-3-carboxamide]	> 10000
0.534	Cc1cc(N2CCC(CN3CCN(c4ccc5c(c4)CCn4nc(-c6ccc(C(=O)Nc7cc(C(F)(F)F)ccn7)cc6)c(C(N)=O)c4N5)CC3)CC2)ccc1N1CCC(=O)NC1=O [Example B3, 7-(4-((1-(4-(2,4-dioxotetrahydropyrimidin-1(2H)-yl)-3-methylphenyl)piperidin-4-yl)methyl)piperazin-1-yl)-2-(4-((4-(trifluoromethyl)pyridin-2-yl)carbamoyl)phenyl)-9,10-dihydro-4H-benzo[d]pyrazolo[1,5-a][1,3]diazepine-3-carboxamide]	88.8
0.703	COc1ccc(C(F)(F)F)cc1C(=O)NCc1ccc(-c2nn3c(c2C(N)=O)Nc2ccc(N4CCN(CC5CCN(c6ccc(N7CCC(=O)NC7=O)cc6)CC5)CC4)cc2CC3)cc1 [Example C21, 7-(4-((1-(4-(2,4-dioxotetrahydropyrimidin-1(2H)-yl)phenyl)piperidin-4-yl)methyl)piperazin-1-yl)-2-(4-((2-methoxy-5-(trifluoromethyl)benzamido)methyl)phenyl)-9,10-dihydro-4H-benzo[d]pyrazolo[1,5-a][1,3]diazepine-3-carboxamide]	> 10000

Compound	DC50 (BTK) [nM]	IC50 (HEK-293 cells) [nM]
Cc1cccc(NC(=O)c2ccc(-c3nn4c(c3C(N)=O)Nc3ccc(N5CCN(CCc6cccc7c6oc(=O)n7C6CCC(=O)NC6=O)CC5)cc3CC4)c(F)c2C)n1 (centres unmarked) [Example B61, 7-(4-(2-(3-(2,6-dioxopiperidin-3-yl)-2-oxo-2,3-dihydrobenzo[d]oxazol-7-yl)ethyl)piperazin-1-yl)-2-(2-fluoro-3-methyl-4-((6-methylpyridin-2-yl)carbamoyl)phenyl)-9,10-dihydro-4H-benzo[d]pyrazolo[1,5-a][1,3]diazepine-3-carboxamide]	1.09	> 10000
